In patent US20080025970A1, “Treatment of atherosclerosis” (priority 2004, published 2008):

Tests used:
Assay type in all cases: cell-based
[1] = tested on: adhesion of highly activated U937 cells to HSP60; experiment: Adhesion of highly activated U937 cells to HSP60 coated wells; conditions: at the lowest concentration tested; FIG. 9
[2] = tested on: adhesion of monocytes to tissue sections of atherosclerotic plaque; experiment: Adhesion of monocytes to tissue sections of atherosclerotic plaque
[3] = tested on: adhesion of highly activated U937 cells to oxidised LDL; experiment: Adhesion of highly activated U937 cells (PMA plus vitamin A and vitamin D) to oxidised LDL; conditions: raft-disrupting agents; all concentrations tested; FIG. 5
Procedure: Plastic wells were coated with oxidised LDL, or fibronectin 10 μg/ml for 16 hrs at 4° C., and washed. Monocytes were isolated in an unactivated state from one unit of buffy coat cells by the method of Tsouknos et al^26, labelled with carboxyfluorescein for 30 mins, and washed. Inhibitors and control Ig UPC10 were added to the plates in 50 μL, and then 50 μL of cells at a final concentration of 3×10^6/ml in the assay. The plates were incubated at 37° C. for 1 hr. Non-adherent cells were removed by a standardised washing procedure, and after addition of cell suspension to 3 wells as the 100% control, the plates were measured in an automatic fluorescent spectrophotometer.
U937 cells were stimulated with PMA 10 ng/ml, plus vitamin A (1 ug/ml) and vitamin D (10^-7 M) for 16 hours, and then the assay was performed as in Example 3.
U937 cells were stimulated as in Example 5, and the experiment performed as in Example 3. The results are shown in FIG. 6, with the legend as in the previous figures. CD14, CD18, TLR-4 antibodies were all murine Igs. MOPC21:—control murine IgG1, UPC10:—control murine IgG2a.

| Compound | inhibition of binding of highly activated U937 cells to HSP60 [1] | inhibition of adhesion of monocytes to tissue sections of atherosclerotic plaque [2] | inhibition of activated U937 cell adhesion to oxidised LDL [3] |
| --- | --- | --- | --- |
| C[S+](C)[O-] [DMSO, Dimethylsulphoxide] | highly inhibitory | inhibits adhesion |  |
| C[C@@H]1[C@H](O)[C@@H](C)/C=C/C=C/CC/C=C/C=C/C=C/C=C/C(O[C@H]2O[C@H](C)[C@@H](O)[C@H](N)[C@@H]2O)CC2O[C@](O)(CC(O)C(O)CCC(O)CC(O)CC(O)CC(=O)O[C@H]1C)CC(O)C2C(=O)O (stereo partly shown) [nystatin] |  |  | near-total inhibition |
| methyl cyclodextrin |  |  | near-total inhibition |
